≈ marks a conversion by molar mass, not a printed value. Entries after “also recorded” stand apart in the source; their conditions may differ. Like-named read-outs stand apart in the source and are kept apart here.
Key:
[1] = system: Neuraminidase from Arthrobacter sialophilus; conditions: in vitro; Kumar et al. 1981, 1982; cited from earlier work
[2] = system: neuraminidase; conditions: cited from earlier work; for inhibition of neuraminidase: type of neuraminidase not identified
[3] = biological target: N2 influenza virus neuraminidase (Influenza A virus, UniProt P06820); assay: biochemical
[4] = system: Neuraminidase in at least some strains of influenza or parainfluenza viruses; conditions: in vitro; Zakstel'skaya et al. 1972; cited from earlier work
[5] = system: H2N2 influenza A virus (A/Sing/1/57); format: in vivo, mice; conditions: for % AUC (lung virus titre, compared to untreated mice): days 1-3; for titre of virus in lung tissue: intranasal, before and during challenge, 1 to 3 days after infection
[6] = biological target: N9 neuraminidase (Influenza A virus, UniProt P03472); assay: biochemical; conditions: read-out: Ki, inhibition of N9 neuraminidase
[7] = system: influenza A/Singapore/1/57 (H2N2); assay: microbe, parasite or virus in culture; format: cell-based; conditions: H2N2, MDCK, 72 h, read-out: IC50 Plaque Reduction, Influenza A
[8] = system: Influenza B/Victoria/102/85; assay: microbe, parasite or virus in culture; format: cell-based; conditions: MDCK, 72 h, read-out: IC50 Plaque Reduction, Influenza B
[9] = system: influenza virus; assay: microbe, parasite or virus in culture; format: cell-based; conditions: unidentified influenza virus, read-out: IC50 plaque reduction
[10] = literature; cited from earlier work
[11] = N2, 37° C., read-out: Ki, inhibition of N2 neuraminidase
[12] = Experiment 1, 25 mg/kg intranasal
[13] = Experiment 2, 12.5 mg/kg intranasal
[14] = Experiment 3, 12.5 mg/kg intranasal

N2 influenza virus neuraminidase, sequence (P06820 whole entry, looked up): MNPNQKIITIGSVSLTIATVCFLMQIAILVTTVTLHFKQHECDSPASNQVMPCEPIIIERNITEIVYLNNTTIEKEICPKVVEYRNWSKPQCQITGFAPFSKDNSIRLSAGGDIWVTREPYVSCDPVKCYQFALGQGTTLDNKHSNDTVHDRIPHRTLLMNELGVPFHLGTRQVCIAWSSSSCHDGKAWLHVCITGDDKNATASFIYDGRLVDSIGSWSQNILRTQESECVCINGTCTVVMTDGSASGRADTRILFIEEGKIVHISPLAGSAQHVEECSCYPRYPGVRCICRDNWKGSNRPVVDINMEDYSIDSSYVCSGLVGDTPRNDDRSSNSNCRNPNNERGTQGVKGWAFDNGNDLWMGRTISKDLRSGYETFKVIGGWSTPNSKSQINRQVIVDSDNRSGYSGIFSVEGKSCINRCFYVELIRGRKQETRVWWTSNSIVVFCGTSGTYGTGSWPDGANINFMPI
N9 neuraminidase, sequence (P03472 whole entry, looked up): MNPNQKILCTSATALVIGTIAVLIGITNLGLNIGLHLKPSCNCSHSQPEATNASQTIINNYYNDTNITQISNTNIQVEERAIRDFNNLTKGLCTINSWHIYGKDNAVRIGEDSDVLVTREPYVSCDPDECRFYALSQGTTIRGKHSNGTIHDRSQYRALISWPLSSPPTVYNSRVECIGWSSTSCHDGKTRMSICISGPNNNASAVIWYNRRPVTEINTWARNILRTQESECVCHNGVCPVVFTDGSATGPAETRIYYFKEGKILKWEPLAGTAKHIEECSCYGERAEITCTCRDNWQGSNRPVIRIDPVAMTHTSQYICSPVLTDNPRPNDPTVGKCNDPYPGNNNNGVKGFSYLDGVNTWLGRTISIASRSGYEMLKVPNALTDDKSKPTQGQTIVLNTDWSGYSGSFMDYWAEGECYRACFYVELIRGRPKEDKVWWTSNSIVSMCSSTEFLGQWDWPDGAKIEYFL

In the case of `CC(=O)N[C@H]1[C@H]([C@H](O)[C@H](O)CO)OC(C(=O)O)=C[C@H]1O` [2,3-dehydro-4-epi-N-acetyl-neuraminic acid], the “inhibition of Arthrobacter sialophilus neuraminidase” value [1] is given as “inhibited in vitro”.
For `N[C@H]1[C@H]([C@H](O)[C@H](O)CO)SC(C(=O)O)=C[C@@H]1O` [2-deoxy-2,3-didehydro-6-thioneuraminic acid], the inhibition of neuraminidase [2] is given as “reported to inhibit neuraminidase”.
Compound `CC(=O)N[C@H]1[C@H]([C@H](O)[C@H](O)CO)O[C@@H](C(=O)O)C[C@@H]1O` [2-deoxy-N acetyl-α-D-neuraminic acid, 2-deoxy-N-acetyl-α-D-neuraminic acid, reference compound] has a Ki [3, 11] of 300 µM.
In the case of `[N-]=[N+]=NC1(C(=O)O)C[C@H](O)[C@@H](N)[C@H]([C@H](O)[C@H](O)CO)S1` (stereo partly drawn) [2-α-azido-6-thio-neuraminic acid], the inhibition of neuraminidase [2] is listed as “reported to inhibit neuraminidase”.
In the case of `O=C1CNC(=O)[C@H]([C@H](O)[C@H](O)CO)O1` [3-aza-2,3,4-trideoxy-4-oxo-D-arabinoctonic acid δ-lactone], the “inhibition of influenza or parainfluenza virus neuraminidase” value [4] is given as “inhibited in vitro”.
For `CC(=O)N[C@@H]1C(=O)C=C(C(=O)O)O[C@H]1[C@H](O)[C@H](O)CO` [5-acetamido-2,6-anhydro-2,3,5-trideoxy-D-manno-non-2-en-4-ulosonate], the “inhibition of Arthrobacter sialophilus neuraminidase” value [1] is given as “inhibited in vitro”.
For `NC12CC3CC(CC(C3)C1)C2` [Amantadine], the “% AUC (lung virus titre, compared to untreated mice)” value (from here on “% AUC”) [5, 12] was 0.08%, the “% AUC” value [5, 13] was 0.03% and the “% AUC” value ([5]; Experiment 2, 25 mg/kg) was 0.2%. For the same compound, the “% AUC” value [5, 14] was 8.8%.
Compound `CC(=O)N[C@H]1[C@H]([C@H](O)[C@H](O)CO)OC(C(=O)O)=C[C@@H]1N=[N+]=[N-]` [Compound 4, Sodium 5-Acetamido-4-azido-2,3,4,5-tetradeoxy-D-glycero-D-galacto-non-2-enopyranosonate] has a Ki [3, 11] of 2 µM.
Compound `CC(=O)N[C@H]1[C@H]([C@H](O)[C@H](O)CO)OC(C(=O)O)=C[C@@H]1N` [Compound 6, Sodium 5-Acetamido-4-amino-2,3,4,5-tetradeoxy-D-glycero-D-galacto-non-2-enopyranosonate] has a Ki [3, 11] of 0.06 µM, a Ki ([3]; read-out: Ki, inhibition of N2 virus neuraminidase) of 0.01 µM and a Ki [6] of 0.19 µM. For the same compound, the IC50 [7] was 1.6 µM, the IC50 [8] was 1.6 µM and the “% AUC” value [5, 12] was 0.06%. The “titre of virus in lung tissue” value [5] was “reduced the titre of virus in lung tissue”.
`C=CCN(CC=C)[C@H]1C=C(C(=O)O)O[C@@H]([C@H](O)[C@H](O)CO)[C@@H]1NC(C)=O` [Compound 9, Sodium 5-Acetamido-4-N,N-diallylamino-2,3,4,5-tetradeoxy-D-glycero-D-galacto-non-2-enopyranosonate] gave a Ki [3, 11] of 4 µM.
In the case of `C=CCN[C@H]1C=C(C(=O)O)O[C@@H]([C@H](O)[C@H](O)CO)[C@@H]1NC(C)=O` [Compound 11, Sodium 5-Acetamido-4-N-allylamino-2,3,4,5-tetra-deoxy-D-glycero-D-galacto-non-2-enopyranosonate], the Ki [3, 11] is reported as 2.5 µM and the Ki [6] is reported as 2.5 µM.
`COC(=O)C1=C[C@@H](N)[C@@H](NC(C)=O)[C@H]([C@H](OC(C)=O)[C@@H](COC(C)=O)OC(C)=O)O1` [Compound 12, Methyl 5-acetamido-7,8,9-tri-O-acetyl-4-amino-2,3,4,5-tetradeoxy-D-glycero-D-talo-non-2-enopyranosonate] showed a Ki [3, 11] of ~3000 µM.
With `COC(=O)C1=C[C@H]2OC(C)=N[C@H]2[C@H]([C@H](OC(C)=O)[C@@H](COC(C)=O)OC(C)=O)O1` [Compound 13, Methyl 7,8,9-tri-O-acetyl-2,3,5-trideoxy-4',5'-dihydro-2'-methyloxazolo [5,4-d] D-glycero-D-talo-non-2-enopyranosonate] the Ki [3, 11] was 30 µM.
`CC(=O)N[C@H]1[C@H]([C@H](O)[C@H](O)CO)OC(C(=O)O)=C[C@H]1N` [Compound 14, Sodium 5-Acetamido-4-amino-2,3,4,5-tetra deoxy-D-glycero-D-talo-non-2-enopyranosonate] showed a Ki [3, 11] of 0.1 µM, a Ki [6] of 0.1 µM and an IC50 [7] of 3 µM. For the same compound, the IC50 [8] was 1.2 µM, the “% AUC” value [5, 14] was 21.1% and the “titre of virus in lung tissue” value [5] was “reduced the titre of virus in lung tissue”.
Compound `CC(=O)N[C@H]1[C@H]([C@H](O)[C@H](O)CO)OC(C(=O)O)=C[C@H]1N=[N+]=[N-]` [Compound 17, Sodium 5-acetamido-4-azido-2,3,4,5-tetradeoxy-D-glycero-D-talo-non-2-enopyranosonate] has a Ki [3, 11] of 28 µM.
Compound `CN[C@H]1C=C(C(=O)O)O[C@@H]([C@H](O)[C@H](O)CO)[C@@H]1NC(C)=O` [Compound 20, Sodium 5-acetamido-4-N-methylamino-2,3,4.5-tetradeoxy-D-glycero-D-galacto-non-2-enopyranosonate] has a Ki [3, 11] of 1.15 µM.
Compound `CC(=O)N[C@H]1[C@H]([C@H](O)[C@H](O)CO)OC(C(=O)O)=C[C@@H]1N(C)C` [Compound 23, Sodium 5-acetamido-4-N,N-dimethylamino-2,3,4,5-tetradeoxy-D-glycero-D-galacto-non-2-enopyranosonate] has a Ki [3, 11] of 0.7 µM.
With `COC(=O)CN[C@H]1C=C(C(=O)OC)O[C@@H]([C@H](O)[C@H](O)CO)[C@@H]1NC(C)=O` [Compound 25, Methyl 5-acetamido-4-N-methoxycarbonylmethylamino-2,3,4,5-tetradeoxy-D-glycero-D-galacto-non-2-enopyranosonate] the Ki [3, 11] was 7 µM.
In the case of `CC(=O)N[C@H]1[C@H]([C@H](O)[C@H](O)CO)OC(C(=O)O)=C[C@@H]1NCCO` [Compound 29, Sodium 5-acetamido-4-N-2'-hydroxyethylamino-2,3,4,5-tetradeoxy-D-glycero-D-galacto-non-2-enopyranosonate], the Ki [3, 11] is reported as 1.6 µM, the Ki [6] is reported as 1.6 µM and the IC50 [7] is reported as 60 µM. The IC50 [8] was 7 µM.
Work on `O=C(O)C1=C[C@H](O)[C@@H](O)[C@H]([C@H](O)[C@H](O)CO)O1` [Compound 35, Sodium 2,-3-dideoxy-D-glycero-D-galacto-non-2-enopyranosonate] yielded a Ki [3, 11] of 480 µM.
Work on `N[C@H]1[C@H]([C@H](O)[C@H](O)CO)OC(C(=O)O)=C[C@@H]1N` [Compound 38, Sodium 4,5-Diamino-2,3,4,5-tetradeoxy-D-glycero-D-galacto-non-2-enopyranosonate] yielded a Ki [3, 11] of 0.65 µM, an IC50 [7] of 11 µM and an IC50 [8] of 6.8 µM.
In the case of `COC(=O)C1=C[C@H](O)[C@@H](NC(C)=O)[C@H]([C@H](O)[C@H](O)CNC(C)=O)O1` [Compound 41, Methyl 5,9-diacetamido-2,3,5,9-tetradeoxy-D-glycero-D-galacto-non-2-enopyranosonate], the Ki [3, 11] is reported as 36 µM.
`CC(=O)NC[C@@H](O)[C@@H](O)[C@@H]1OC(C(=O)O)=C[C@H](O)[C@H]1NC(C)=O` [Compound 42, 5,9-diacetamido-2,3,5,9-tetradeoxy-D-glycero-D-galacto-non-2-enopyranosonicacid] showed a Ki [3, 11] of 14.5 µM.
Compound `COC(=O)C1=C[C@H](O)[C@@H](NC(C)=O)[C@H]([C@H](O)[C@H](O)CC#N)O1` [Compound 43, Methyl 5-acetamido-9-cyano-2,3,5,9-tetradeoxy-D-glycero-D-galacto-non-2-enopyranosonate] has a Ki [3, 11] of ~3000 µM.
Compound `CC(=O)N[C@H]1[C@H]([C@H](O)[C@H](O)CC#N)OC(C(=O)O)=C[C@@H]1O` [Compound 44, 5-Acetamido-9-cyano-2,3,5,9-tetradeoxy-D-glycero-D-galacto-non-2-enopyranosonic acid] has a Ki [3, 11] of 3 µM.
With `C=CCN(O)[C@H]1C=C(C(=O)O)O[C@@H]([C@H](O)[C@H](O)CO)[C@@H]1NC(C)=O` [Compound 45, Sodium 5-acetamido-4-N-allyl-N-hydroxy-2,3,4,5-tetradeoxy-D-glycero-D-galacto-non-2-enopyranosonate] the IC50 [7] was 4.7 µM and the IC50 [8] was 2.7 µM.
In the case of `CC(=O)N[C@H]1[C@H]([C@H](O)[C@H](O)CO)OC(C(=O)O)=C[C@@H]1O` [DANA, 2-deoxy-2,3-didehydro-N-acetylneuraminic acid], the “% AUC” value [5, 12] is reported as 0.18%, the “% AUC” value [5, 13] is reported as 2.0% and the “% AUC” value [5, 14] is reported as 48.0%. For the same compound, the “titre of virus in lung tissue” value [5] was “reduced the titre of virus in lung tissue”, the IC50 [9] was 5 µg/mL (≈ 17.2 µM) and the “inhibition of Arthrobacter sialophilus neuraminidase” value [1] was “inhibited in vitro”.
In the case of `O=C(O)C1=C[C@H](O)[C@@H](NC(=O)C(F)(F)F)[C@H]([C@H](O)[C@H](O)CO)O1` [FANA, 2-deoxy-2,3-dehydro-N-trifluoroacetyl-neuraminic acid], the “activity among neuraminidase inhibitors of the DANA type” value ([2]; literature) is listed as “most active” and the “anti-viral activity in vivo” value [10] is listed as “not to possess in vivo anti-viral activity; also recorded: inactive in vivo”.
In the case of `CC(=O)N[C@H]1[C@H]([C@H](O)[C@H](O)CO)OC(F)(C(=O)O)C(F)[C@@H]1O` (stereo partly drawn) [N-acetyl-2,3-difluoro-α-D-neuraminic acid], the inhibition of neuraminidase [2] is listed as “reported to inhibit neuraminidase”.
In the case of `CC(=O)NC1C(O)CC(OC2C(O)C(CO)OC(O)C2NC(C)=O)(C(=O)O)OC1C(O)C(O)CO` [O-α-N-acetyl-D-neuraminosyl-)2→3)-2-acetamido-2-deoxy-D-glucose], the “inhibition of influenza or parainfluenza virus neuraminidase” value [4] is given as “inhibited in vitro”.
In the case of `NC(=O)c1ncn([C@@H]2O[C@H](CO)[C@@H](O)[C@H]2O)n1` [Ribavirin], the “% AUC” value ([5]; Experiment 2, 25 mg/kg) is reported as 29.8%.

Reference: patent US5648379A (priority 1990, dated 1997)
